As usually defined, the MIC is the lowest concentration found to suppress growth.

In brackets after ≈: the same amount, converted by molar mass.

The record followed here is patent publication US12024490B2, “Polymeric metal chelating compositions and methods of preparing same for controlling growth and activities of living cells and organisms for therapeutic use in treating diseases in animals, fish or humans” (CHELATION PARTNERS INCORPORATED, priority 2016, dated 2024).

The test system of this test is Staphylococcus aureus. In words: Growth inhibition (MIC) in RPMI 1640, Staphylococcus aureus. The class given is cell-based. The following applies: method of Example 6, read-out: MIC for S. aureus. The protocol: Chelating compositions were assessed for their biological activity in vitro by determination of their growth inhibitory activity for Staphylococcus aureus (strain 038, a clinical isolate from a corneal infection obtained from Dr. Mark Wilcox, University New South Wales, Australia or strain ATCC 43300, a prototypical clinical isolate and reference strain obtained from the American Type Culture Collection) and Candida albicans (SC5314, a prototypical clinical isolate and reference strain obtained from the American Type Culture Collection or strain 3969 a clinical isolate obtained from the Queen Elizabeth II hospital, Halifax, Canada). The microorganisms were grown in RPMI 1640 culture medium and tested in fresh aliquots of RPMI 1640 medium or in medium that had been partially deferrated by the method of Holbein and Mira (Holbein B. E, Mira de Orduña R. 2010, FEMS Microbiol Lett. 307(1):19-24, herein incorporated by reference) to allow testing at low Fe levels or with iron re-added at known concentrations to this deferrated medium. Growth at 30° C. was measured by optical density when the test samples were incubated in tubes or visually when growth was tested in microtitre dish wells. […]

With `C=C(C)C(=O)NCCn1ccc(=O)c(O)c1C` [MAHMP, 3-hydroxy-1-(β-methacrylamidoethyl)-2-methyl-4(1H)-pyridinone], the MIC amounted to 125 µg/mL (≈ 529 µM).
